Data from ChEMBL document CHEMBL3867465, “Gastroprotective activity of synthetic coumarins: Role of endogenous prostaglandins, nitric oxide, non-protein sulfhydryls and vanilloid receptors” (2016).

Assays:
Assay type in all cases: functional, Stomach
Mus musculus [1] = assay: Gastroprotective activity in Swiss albino mouse assessed as reduction in HCl/EtOH-induced gastric lesions at 20 mg/kg, po pretreated for 50 mins followed by HCl/EtOH challenge measured after 1 hr; design: scale not given: the % may be the effect or the level left
Mus musculus [2] = assay: (§1) Gastroprotective activity in Swiss albino mouse assessed as reduction in HCl/EtOH-induced gastric lesions by measuring lesion index at 100 mg/kg, po pretreated for 50 mins followed by HCl/EtOH challenge measured after 1 hr (reference value: 38.8 +/- 1.6 millimeter)
Mus musculus [3] = assay: Gastroprotective activity in Swiss albino mouse assessed as reduction in HCl/EtOH-induced gastric lesions by measuring lesion index at 30 mg/kg, sc pretreated followed by HCl/EtOH challenge measured after 1 hr (reference value: 38.8 +/- 1.6 millimeter)
Mus musculus [4] = assay: Gastroprotective activity in Swiss albino mouse assessed as reduction in HCl/EtOH-induced gastric lesions by measuring lesion index at 70 mg/kg, ip pretreated followed by HCl/EtOH challenge measured after 1 hr (reference value: 38.8 +/- 1.6 millimeter)
Mus musculus [5] = assay: Gastroprotective activity in Swiss albino mouse assessed as reduction in HCl/EtOH-induced gastric lesions by measuring lesion index at 10 mg/kg, sc pretreated followed by HCl/EtOH challenge measured after 1 hr (reference value: 38.8 +/- 1.6 millimeter)
Mus musculus [6] = assay: as §1, with “20” for “100”, “hr in presence of NO synthase inhibitor NG-nitro-L-arginine methyl ester” for “hr”
Mus musculus [7] = assay: (§2) Gastroprotective activity in Swiss albino mouse assessed as reduction in HCl/EtOH-induced gastric lesions by measuring lesion index at 20 mg/kg, po pretreated for 50 mins followed by HCl/EtOH challenge measured after 1 hr (reference value: 38.8 +/- 1.6 millimeter)
Mus musculus [8] = assay: as §2, with “hr in presence of vanilloid receptor antagonist ruthenium red” for “hr”
Mus musculus [9] = assay: as §2, with “hr in presence of sulfhydryl blocker N-ethylmaleimide” for “hr”
Mus musculus [10] = assay: as §2, with “hr in presence of PG synthesis inhibitor indomethacin” for “hr”

Compound | Activity (Mus musculus [1]) | also measured
O=C(O)c1cc2ccc(O)cc2oc1=O | 60% | 
O=C(O)Cc1cc(=O)oc2cc(O)ccc12 | 68% | 
CC(=O)c1cc2ccc(O)cc2oc1=O | 15% | 
CC(=O)c1cc2cccc(O)c2oc1=O | 41% | 
CCOC(=O)c1cc2cccc(O)c2oc1=O | 15% | 
O=c1cc(CCl)c2ccc(O)cc2o1 | 57% | 
O=c1cc(CN2CCN(CCO)CC2)c2ccc(O)cc2o1 | 65% | 
O=C(Oc1ccccc1)c1cc2ccc(O)cc2oc1=O | 63% | 
CCOC(=O)c1cc2cccc(OC)c2oc1=O | 0% | 
CNCc1cc(=O)oc2cc(O)ccc12 | 49% | 
CCOC(=O)c1cc2ccccc2oc1=O | 35% | 
O=c1cc(CCl)c2c(O)cc(O)cc2o1 | 42% | 
CC(=O)c1cc2ccccc2oc1=O [3-ACETYLCOUMARIN] | 66% | 
Cc1cc(=O)oc2cc(O)cc(O)c12 [5,7-DIHYDROXY-4-METHYLCOUMARIN] | 45% | 
CC1(C)[C@@H](OC(=O)CCC(=O)O)CC[C@]2(C)[C@H]3C(=O)C=C4[C@@H]5C[C@@](C)(C(=O)O)CC[C@]5(C)CC[C@@]4(C)[C@]3(C)CC[C@@H]12 [CARBENOXOLONE] |  | Activity (Mus musculus [2]): 13.1 mm
O=c1ccc2cc(O)c(O)cc2o1 [ESCULETIN] | 17% | 
Cc1cc(=O)oc2cc(O)ccc12 [HYMECROMONE] | 31% | 
COc1ccc2c(c1)c(CC(=O)O)c(C)n2C(=O)c1ccc(Cl)cc1 [INDOMETHACIN] |  | Activity (Mus musculus [3]): 41.1 mm
COC(=O)[C@@H](N)CCCNC(=N)N[N+](=O)[O-] [L-NAME] |  | Activity (Mus musculus [4]): 35.7 mm
Cc1c(OCC(F)(F)F)ccnc1C[S+]([O-])c1nc2ccccc2[nH]1 (stereo not drawn) [LANSOPRAZOLE] | 74% | 
CCN1C(=O)C=CC1=O [N-ETHYLMALEIMIDE] |  | Activity (Mus musculus [5]): 40.1 mm
O=c1cc(CN2CCOCC2)c2ccc(O)cc2o1 [OXAZORONE] | 75% | Activity (Mus musculus [6]): 34.7 mm; Activity (Mus musculus [7]): 10.3 mm; Activity (Mus musculus [8]): 14.4 mm; Activity (Mus musculus [9]): 28.8 mm; Activity (Mus musculus [10]): 13.6 mm
COc1cc2ccc(=O)oc2cc1O [SCOPOLETIN] | 61% | 
